Patent US9949917B2, “Cosmetic composition comprising a combination of a sugar fatty acid ester with a plant extract of Waltheria indica or Pisum sativum for skin whitening” (Cognis IP Management GmbH, priority 2006, dated 2018)

Experiments:
[1] = biological target: T1, Tyrosinase in B16 melanocytes (Mus musculus, UniProt P11344); assay: Tyrosinase activity on melanocytes (DL-DOPA, optical density at 475 nm); type: cell-based
T1 construct: endogenous in cells; host or cells: B16 melanocytes (cell line)
T1 sequence (P11344 19-533): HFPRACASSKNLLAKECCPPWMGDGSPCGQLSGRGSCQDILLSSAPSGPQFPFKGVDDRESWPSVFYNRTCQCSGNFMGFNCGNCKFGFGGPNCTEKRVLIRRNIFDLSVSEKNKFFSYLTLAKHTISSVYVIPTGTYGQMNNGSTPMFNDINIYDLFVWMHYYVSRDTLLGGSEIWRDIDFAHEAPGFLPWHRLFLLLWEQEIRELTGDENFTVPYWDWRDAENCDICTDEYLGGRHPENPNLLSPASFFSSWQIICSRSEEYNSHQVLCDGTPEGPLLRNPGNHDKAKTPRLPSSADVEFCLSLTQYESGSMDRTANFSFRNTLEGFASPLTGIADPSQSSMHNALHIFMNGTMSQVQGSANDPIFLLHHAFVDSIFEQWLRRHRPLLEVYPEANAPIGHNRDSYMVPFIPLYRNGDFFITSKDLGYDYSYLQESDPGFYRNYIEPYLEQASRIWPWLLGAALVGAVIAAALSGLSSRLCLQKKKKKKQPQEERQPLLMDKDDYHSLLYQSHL
Description: Melanocytes (B16 cell line) were inoculated in standard medium of cell culture with foetal calf serum (FCS). […] Combinations of ingredients have been tested on the same cultures, in parallel with ingredients alone. […] The optical density at 475 nm is expressed as a % against control and presented as a mean+/−SEM (standard error of mean) of triplicates.

[2] = test system: Melanocytes (B16 cell line); assay: Melanogenesis inhibition assay: level of melanin (optical density at 475 nm); type: cell-based
Description: Melanocytes (B16 cell line) were inoculated in standard medium of cell culture with foetal calf serum (FCS). After an incubation for 3 days at 37° C. and CO2=5%, growth medium was exchanged for standard medium with a range of concentrations for each ingredient to be tested and a control without ingredient. After an incubation of 3 days, the level of melanin is measured by recording the optical density at 475 nm. After washing the cells by a balanced salt, and homogenisation in a solution of 0.1 M NaOH, the number of viable cells is determined by evaluation of the level of cellular proteins (Bradford's method).
Combinations of ingredients have been tested on the same cell cultures, in parallel with the ingredients alone. The results are expressed in % against control (cell culture medium without ingredient) as a mean+/−SEM (Standard Error of Mean) on 2 or 3 assays, each in triplicate.

[3] = sucrose laurate 0.0003% (w/v) alone, 3 assays

effect on tyrosinase activity in melanocytes (in words) ([1]; Tables 7 and 8): decreases the tyrosinase activity | Tyrosinase activity in %/control ([1]; sucrose laurate 0.005% (w/v) alone): 75 +/− 6 %/control | Tyrosinase activity in %/control ([1]; sucrose laurate 0.01% (w/v) alone): 64 +/− 7 %/control
Substance: Sucrose laurate [Sucrose laurate of example 5]
Rate of melanin in %/control [2, 3]: 56 +/− 18 %/control | Ratio of rate of cellular proteins on rate of melanin [2, 3]: 1.8 | Rate of melanin in %/control ([2]; sucrose laurate 0.0003% (w/v) alone, 3 assays, listed as sucrose laurate): 56+/−18 %/control | Rate of melanin in %/control ([2]; sucrose laurate 0.001% (w/v) alone, 2 assays (Table 5)): 56 +/− 7 %/control | Ratio of rate of cellular proteins on rate of melanin ([2]; sucrose laurate 0.001% (w/v) alone, 2 assays (Table 6)): 1.6 | Rate of melanin in %/control ([2]; sucrose laurate 0.001% (w/v) alone, 3 assays (Table 2)): 54 +/− 16 %/control | Rate of melanin in %/control ([2]; sucrose laurate 0.001% (w/v) alone, 3 assays (Table 2), listed as sucrose laurate): 54+/−16 %/control | Ratio of rate of cellular proteins on rate of melanin ([2]; sucrose laurate 0.001% (w/v) alone, 3 assays (Table 3)): 1.8
